These results are taken from ChEMBL document CHEMBL5727219, “Kinase inhibitors and method of treating cancer” (2019).

The structures appear in SMILES notation.

By IC50 is commonly meant the concentration needed to halve the response being measured. A lower IC50 goes with higher potency.

A short description of this experiment: Inhibition Assay: PLK3 inhibition was determined using the Z-Lyte assay kit from Invitrogen (cat #PV3802). The assay was performed using the recommended manufacturer's instructions with 100 μM ATP and 21 nM PLK3 (Invitrogen cat #PV3812). The % inhibition values were determined according to the manufacturer's directions and IC50 values were obtained using a non-linear 4 point logistic curve fit (XLfit4, IDBS).
As for `CCc1ccc2c(c1)[C@]1(C[C@H]1c1ccc3c(-c4cccc(CN5CCOCC5)c4)n[nH]c3c1)C(=O)N2`, the IC50 result was “in the range around 2000 nM”.

In the case of `COCCN1C(=O)[C@@]2(C[C@H]2c2ccc3c(/C=C/c4ccc(CN(C)C)cc4)n[nH]c3c2)c2ccccc21`, the IC50 result was “in the range around 2000 nM”.

Consider `COc1ccc2c(c1)[C@]1(C[C@H]1c1ccc3c(-c4cccc(N5CCNCC5)c4)n[nH]c3c1)C(=O)N2` (relative stereo), for which the IC50 entry was “in the range around 2000 nM”.

`COc1ccc2c(c1)[C@]1(C[C@H]1c1ccc3c(-c4cccc(CN5CCCCC5)c4)n[nH]c3c1)C(=O)N2` (relative stereo): the IC50 result was “in the range around 2000 nM”.

`COc1ccc2c(c1)[C@]1(C[C@H]1c1ccc3c(-c4cccc(CN5CCOCC5)c4)n[nH]c3c1)C(=O)N2` (relative stereo): the IC50 result was “in the range around 2000 nM”.

Turning to `COc1ccc2c(c1)[C@]1(C[C@H]1c1ccc3c(-c4ccc(CO)cc4)n[nH]c3c1)C(=O)N2` (relative stereo), the IC50 entry is “in the range around 2000 nM”.
